Test results as given in patent US20220117266A1, “NICKEL CHELATION THERAPY” (priority 2019, published 2022).
Read-outs that look alike come from different tables or passages of the source.

Experiments:
[1] = tested on: C. jejuni (strain NCTC 11168); experiment: C. jejuni-chicken colonization experiment; assay type: in vivo, chickens
Procedure: Since chickens are natural hosts for C. jejuni, and chicken meat is one of the main sources of campylobacteriosis in humans, it was important to test the efficacy of DMG alone or in combination with copper in this animal model. Two independent trials were conducted, as described in FIG. 22. In both trials, the treatment was administered through ad libitum drinks, starting two to three days before C. jejuni inoculation (with strain NCTC 11168), and going through the end of each experiment. […] Nine days after inoculation with C. jejuni, chickens were euthanized, and their ceca were isolated for bacterial count. […] The treatment was administered two days before inoculation with C. jejuni, and chicken ceca were harvested eight days after inoculation.

Aβ40 peptide = Aβ40 peptide (Homo sapiens, UniProt P05067); experiment: Thioflavin T (ThT)-based Aβ40 aggregation assay; assay type: biochemical; parameters: purchased rPeptides, Watkinsville, Ga., USA kit #A-1180-1; host or cells: E. coli; conditions: for remaining activity at 100 µM: DMG 100 μM; for remaining activity at 100 µM / remaining activity at 500 µM / remaining activity at 1000 µM: read-out: Relative Aβ40 aggregation rate (% control); for remaining activity at 500 µM: DMG 500 μM; for remaining activity at 1000 µM: DMG 1000 μM
Procedure: Amyloid Beta aggregation. […] This kit contained human recombinant Aβ40 peptide (>97% pure, as determined by manufacturer's HPLC) with the following sequence […] (SEQ ID NO:1), as provided by the manufacturer. […] The aggregation of Aβ40, was shown by the increase in fluorescence (lex=440 nm/lem=485 nm) over time, was followed for 60 min or 120 min, with reading every three or five min, using a Synergy MX reader (Biotek, Winooski, Vt.). A ThT-only background control (no Aβ40 peptide) was included in triplicate in all experiments and subtracted from all readings. The aggregation rate, defined as the increase in fluorescence per min (RFU/min), was calculated by using the formula [A(440,485) at T40min)−A(440,485) at T20min]/20.

[2] = tested on: Helicobacter pylori 43504; experiment: Biofilm inhibition assay (crystal violet); assay type: cell-based; conditions: 48 hours with DMG
Procedure: (§1) Biofilm inhibition assay. S. Typhimurium and K. pneumoniae cultures were adjusted to an optical density (OD600) of 0.1 in fresh LB broth. H. pylori culture was adjusted to an OD600 of 0.15 in brain heart infusion (BHI) supplemented with 0.4% β-cyclodextran. […] Plates containing S. Typhimurium and K. pneumoniae were incubated at 37° C. aerobically without shaking for 18 hours. Plates containing H. pylori were incubated at 37° C. microaerobically without shaking for 48 hours. After incubation with (Na2DMG) a crystal violet biofilm assay was performed as previously described with modifications (Kwasny et al. 2010. Current Protocols in Pharmacology 50:13A. 8.1-13A. 8.23). Briefly, supernatant was removed from the wells. Next, adherent cells were gently washed with phosphate-buffered saline (PBS) and allowed to air dry for 15 minutes. Cells were then heat fixed for one hour at 60° C. before staining with 0.5% crystal violet for 5 minutes. After the crystal violet was thoroughly washed from the wells with distilled deionized water, cells were air dried for 15 minutes. Acetic acid (33%) was then added to the wells to solubilize the crystal violet. The crystal violet-acetic acid solution was transferred to a clean 96 well plate and the OD600 was measured.

[3] = tested on: Klebsiella pneumoniae ATCC BAA2472; experiment: Biofilm inhibition assay (crystal violet); assay type: cell-based; conditions: 18 hours with DMG
Procedure: as §1

[4] = tested on: S. Typhimurium (ATCC 14028); experiment: DMG growth inhibition in liquid culture (CFU/mL); assay type: cell-based, Salmonella enterica serovar Typhimurium
Procedure: Growth conditions. All strains were routinely grown on LB agar plates or in LB broth. For DMG-growth inhibition study, S. Typhimurium strains ATCC 14028 and ATCC 700408 were grown in M9 minimal medium (M9 minimal salts, 0.4% glucose, 2 mM MgSO4, 0.1 mM CaCl2), and 1 μg/mL thiamine, pH 7.2). K. pneumoniae was grown in “W-U” medium, modified from Bender et al. 1977 129:1001-1009, containing 60 mM K2HPO4, 33 mM KH2PO4, 0.4 mM MgSO4, 0.4% Glucose, and 5 mM urea (instead of KNO3), pH 7.4. Briefly, overnight cultures of S. Typhimurium and K. pneumoniae were harvested, spun at 14,000 rpm for five minutes, washed once with either M9 (S. Typhimurium) or W-U (K. pneumoniae) and resuspended in either M9 (S. Typhimurium) or W-U (K. pneumoniae). […] Cells were incubated for 24 hours at 37° C. with shaking at 250 rpm, then serially diluted in PBS and 5 μL of each dilution was spotted in triplicate on LB plate. Colony forming units (CFU) were counted after 16 hours at 37° C. Each growth experiment was done at least three times.

[5] = tested on: H2-uptake hydrogenase activity in S. Typhimurium 14028; experiment: Amperometric hydrogenase assay on whole cells grown with DMG; assay type: cell-based
Procedure: H2-uptake hydrogenase activity is required for colonization in a murine model.
Amperometric hydrogenase assays. […] Cells were suspended in phosphate-buffered saline (PBS) to a final concentration of 8×10^8, per mL and added to a sealed amperometric dual-electrode chamber, with constant stirring; 100 μL of H2-saturated phosphate-buffered saline was added to the chamber and the disappearance of H2 was recorded over time. Hydrogenase activity is expressed in nmoles of H2 oxidized per minute per 10^8 cells.

[6] = Experiment 1, ad libitum CuSO4 (0.2 mM) + DMG (10 mM), total n=6, 9 days p.i.
[7] = Experiment 2, ad libitum CuSO4 (0.2 mM) + DMG (15 mM), total n=5, 8 days p.i.
[8] = Experiment 2, ad libitum DMG (15 mM), total n=7, 8 days p.i.
[9] = first trial, DMG (10 mM) combined with CuSO4 (0.2 mM)
[10] = experiment B, no supplemental metal
[11] = experiment C, no supplemental metal

Chain of Aβ40 peptide (P05067 672-711): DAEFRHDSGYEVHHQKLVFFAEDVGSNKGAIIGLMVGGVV

For `CC(=NO)C(C)=NO` [DMG, dimethylglyoxime], the “C. jejuni Average CFUs per g of cecum (x10^8)” value (from here on “C. jejuni Average CFUs per g”) ([1]; Experiment 1, ad libitum CuSO4 (0.2 mM) + DMG (10 mM), 9 days p.i.) was 1.12 x10^8 CFUs per g of cecum, the “Chickens Cj-free (n=)” value [1, 6] was 2 and the “Chickens Colonized (n=)” value [1, 6] was 4. The “C. jejuni Average CFUs per g” value ([1]; Experiment 2, ad libitum CuSO4 (0.2 mM) + DMG (15 mM), 8 days p.i.) was 1.99 x10^8 CFUs per g of cecum, the “Chickens Cj-free (n=)” value [1, 7] was 0 and the “Chickens Colonized (n=)” value [1, 7] was 5. The “C. jejuni Average CFUs per g” value ([1]; Experiment 2, ad libitum DMG (15 mM), 8 days p.i.) was 2.38 x10^8 CFUs per g of cecum, the “Chickens Cj-free (n=)” value [1, 8] was 1 and the “Chickens Colonized (n=)” value [1, 8] was 6. The “chickens in which C. jejuni was not recovered” value ([1]; first trial, Cu-DMG treated group (n=6)) was 33%, the “decrease in bacterial count in the cecum compared to the copper-only control” value [1, 9] was 5 fold and the “decrease in bacterial count in the cecum compared to the water-only control” value [1, 9] was 3 fold. The “decrease in bacterial burden compared to the water control” value ([1]; second trial, DMG (15 mM) combined with CuSO4 (0.2 mM)) was “approximately 3.5 fold”, the “less bacterial colonization of the cecum compared to the water only control” value ([1]; second trial, DMG only (15 mM)) was “approximately 3 fold” and the “inhibition of Aβ40 aggregation” value (Aβ40 peptide; 500 mM or 1000 mM DMG (so in the source), no supplemented metal) was “partial or full inhibition”. The remaining activity at 100 µM (Aβ40 peptide; experiment A, Cu 10 μM) was 54 ± 12%, the remaining activity at 100 µM (Aβ40 peptide; experiment A, Ni 10 μM) was 58 ± 11% and the remaining activity at 100 µM (Aβ40 peptide; experiment A, Zn 10 μM) was 457 ± 39%. It also gave a remaining activity at 100 µM (Aβ40 peptide; experiment A, no supplemental metal) of 33 ± 2%, a remaining activity at 100 µM (Aβ40 peptide; experiment B, Ni 100 μM) of 410 ± 91% and a remaining activity at 100 µM (Aβ40 peptide; [10]) of 15 ± 14%. For the same molecule, the remaining activity at 500 µM (Aβ40 peptide; experiment B, Ni 100 μM) was < 1%, the remaining activity at 500 µM (Aβ40 peptide; experiment B, Zn 100 μM) was 833 ± 156% and the remaining activity at 500 µM (Aβ40 peptide; [10]) was < 1%. The remaining activity at 1000 µM (Aβ40 peptide; experiment B, Ni 100 μM) was < 1%, the remaining activity at 1000 µM (Aβ40 peptide; experiment B, Zn 100 μM) was 328 ± 63% and the remaining activity at 1000 µM (Aβ40 peptide; [10]) was < 1%. The remaining activity at 100 µM (Aβ40 peptide; experiment C, Cu 100 μM) was 66 ± 15%, the remaining activity at 100 µM (Aβ40 peptide; [11]) was 48 ± 8% and the remaining activity at 500 µM (Aβ40 peptide; experiment C, Cu 100 μM) was 49 ± 8%. It also gave a remaining activity at 500 µM (Aβ40 peptide; [11]) of 15 ± 5%, a remaining activity at 1000 µM (Aβ40 peptide; experiment C, Cu 100 μM) of 40 ± 3% and a remaining activity at 1000 µM (Aβ40 peptide; [11]) of 21 ± 10%. The “inhibition of Aβ40 aggregation” value (Aβ40 peptide; increasing amounts of DMG in presence of 100 mM Cu^2+ or Zn^2+ (so in the source)) was “partial inhibition”, the “inhibition of Aβ40 aggregation” value (Aβ40 peptide; increasing amounts of DMG in presence of 100 mM Ni^2+ (so in the source)) was “Complete inhibition” and the “Aβ40 peptide aggregation under all pHs tested” value (Aβ40 peptide; pH 6.5, 7.5 or 8.5, 25 mM Aβ40, CuSO4 25 mM, ZnSO4 10 mM or DMG 100 mM (so in the source)) was “negligible”. The biofilm formation [2] was “able to inhibit biofilm formation”, the biofilm formation [3] was “able to inhibit biofilm formation” and the “effect on bacterial growth” value ([4]; DMG at 2.5 mM, 5 mM, or 7.5 mM) was “no measurable effect”. The inhibition at 10000 µM ([4]; Salmonella enterica, 24 h) was > 100%, the “increase in hydrogenase activity compared to the 1 mM DMG medium” value ([5]; 1 mM DMG + 50 μM NiCl2) was 50% and the Hydrogenase activity ([5]; DMG 0.1 mM in blood-based medium, six hours, H2-enriched microaerobic, DMG D1885 (anhydrous)) was 14.0 ± 2.7 nmoles H2 oxidized per minute per 10^9 cells. The Hydrogenase activity ([5]; DMG 0.5 mM) was 4.6 ± 1.2 nmoles H2 oxidized per minute per 10^9 cells, the Hydrogenase activity ([5]; DMG 1 mM) was 3.9 ± 0.9 nmoles H2 oxidized per minute per 10^9 cells and the Hydrogenase activity ([5]; DMG 1 mM + NiCl2 0.05 mM) was 6.9 ± 1.7 nmoles H2 oxidized per minute per 10^9 cells. The Hydrogenase activity ([5]; DMG 5 mM) was 0.8 ± 0.1 nmoles H2 oxidized per minute per 10^9 cells.
